Results reported in patent US20250127937A1, “FAP INHIBITOR” (UNIVERSITÄT HEIDELBERG, priority 2018, published 2025).

Key:
human FAP-α = human FAP-α (Homo sapiens (Human), UniProt Q12884); experiment: Competitive binding of radiolabeled compound to HT-1080-FAP cells against unlabeled compound; conditions: radiolabeled FAPI-01 (I-125) / FAPI-02 (Lu-177), HT-1080-FAP cells, 60 min; read-out: IC50 human FAP-α
Experimental: Competition experiments were performed by simultaneous exposure to unlabeled (10^−5 M to 10^−9M) and radiolabeled compound for 60 min. […] For internalization experiments, surface bound activity was removed by incubating the cells with 1 M glycine-HCl buffer for 10 min. The radioactivity was measured using a γ-counter, normalized to 1 mio cells and calculated as percentage of applied dose (% ID).
The medium was replaced by 1 mL fresh medium without fetal calf serum. […] Competition experiments were performed by simultaneous exposure to unlabeled (10^−5 M to 10^−9 M) and radiolabeled compound for 60 min. […] In all experiments, the cells were washed with 1 mL phosphate-buffered saline pH 7.4 for 2 times and subsequently lysed with 1.4 ml lysis buffer (0.3 M NaOH, 0.2% SDS). Radioactivity was determined in a γ-counter (Cobra II, Packard), normalized to 1 mio cells and calculated as percentage of the applied dose (% ID). Each experiment was performed 3 times, and 3 repetitions per independent experiment were acquired.

HT-1080-FAP cells = experiment: Radioligand binding and internalization in HT-1080-FAP cells; format: cell-based, human
Experimental: Radioligand binding studies were performed using HT-1080-FAP cells. The radiolabeled compound was added to the cell culture and incubated for different time intervals ranging from 10 min to 24 h. Competition experiments were performed by simultaneous exposure to unlabeled (10^−5 M to 10^−9M) and radiolabeled compound for 60 min. For efflux experiments, radioactive medium was removed after incubation for 60 min and replaced by non-radioactive medium for time intervals ranging from 1 to 24 h. For internalization experiments, surface bound activity was removed by incubating the cells with 1 M glycine-HCl buffer for 10 min. The radioactivity was measured using a γ-counter, normalized to 1 mio cells and calculated as percentage of applied dose (% ID).
For radioligand binding studies, cells were seeded in 6-well plates and cultivated for 48 h to a final confluence of approx. 80-90% (1.2-2 mio cells/well). The medium was replaced by 1 mL fresh medium without fetal calf serum. The radiolabeled compound was added to the cell culture and incubated for different time intervals ranging from 10 min to 24 h. Competition experiments were performed by simultaneous exposure to unlabeled (10^−5 M to 10^−9 M) and radiolabeled compound for 60 min. For efflux experiments, radioactive medium was removed after incubation for 60 min and replaced by non-radioactive medium for time intervals ranging from 1 to 24 h. In all experiments, the cells were washed with 1 mL phosphate-buffered saline pH 7.4 for 2 times and subsequently lysed with 1.4 ml lysis buffer (0.3 M NaOH, 0.2% SDS). Radioactivity was determined in a γ-counter (Cobra II, Packard), normalized to 1 mio cells and calculated as percentage of the applied dose (% ID). Each experiment was performed 3 times, and 3 repetitions per independent experiment were acquired.
For internalization experiments the cells were incubated with the radiolabeled compound for 60 min at 37° C. and 4° C. Cellular uptake was terminated by removing medium from the cells and washing 2 times with 1 mL PBS. Subsequently, cells were incubated with 1 mL of glycine-HCl (1 Min PBS, pH 2.2) for 10 min at room temperature to remove the surface bound activity. The cells were washed with 2 mL of ice-cold PBS and lysed with 1.4 mL of lysis buffer to determine the internalized fraction. For the cells incubated at 4° C., all washing and elution steps were carried out using ice-cold buffers. The radioactivity was measured using a γ-counter, normalized to 1 mio cells and calculated as percentage of applied dose (% ID).

[1] = system: HT-1080-FAP tumor xenografts; experiment: Dynamic small-animal PET, two-tissue compartment model, HT-1080-FAP xenografts; format: in vivo, mouse; conditions: 68Ga-FAPI-02, HT-1080-FAP
Experimental: (§1) For in vivo experiments, 8 week old BALB/c nu/nu mice (Charles River) were subcutaneously inoculated into the right trunk with 5×10^6 with HT-1080-FAP, Capan-2 or SK-LMS-1 cells, respectively. When the size of the tumor reached approximately 1 cm^3, the radiolabeled compound was injected via the tail vein (˜10 MBq for small-animal PET imaging; ˜1 MBq for organ distribution). PET imaging was performed up to 140 min after intravenous injection of 1 MBq of Ga-68 labeled compound per mouse using the Inveon PET small-animal PET scanner (Siemens). Images were reconstructed iteratively using the 3D-OSEM+MAP method and were converted to standardized uptake value (SUV) images. Quantification was done using a ROI technique and expressed as SUV mean. For organ distribution of Lu-177 labeled compound (approx. […] per mouse), the animals (n=3 for each time point) were sacrificed after indicated time points (from 30 min to 24 h). The distributed radioactivity was measured in all dissected organs and in blood using a γ-counter (Cobra Autogamma, Packard). The values are expressed as percentage of injected dose per gram of tissue (% ID/g).
For pharmakokinetic modeling the transport constant K1 and the rate constants k2-k4 were calculated using a two-tissue compartment model implemented in the PMOD software, taking into account the vascular fraction (vB), which is associated with the volume of blood exchanging with tissue in a VOI. The rate constants that describe the compartmental fluxes include k1 (binding to the receptor), k2 (detachment) as well as k3 (internalization) and k4 (efflux) in the tumor tissue. In this model the fractional volume of distribution (DV=K1/k2) is the proportion of the region of interest in which […] is distributed.

Capan-2 tumor xenografts = experiment: Organ distribution ex vivo in Capan-2 tumor bearing nude mice; parameters: species or system mouse; conditions: Lu-177 labeled, 1 h after i.v., Capan-2, mean ± SD, n = 3
Experimental: as §1

Chain of human FAP-α (Q12884 whole entry): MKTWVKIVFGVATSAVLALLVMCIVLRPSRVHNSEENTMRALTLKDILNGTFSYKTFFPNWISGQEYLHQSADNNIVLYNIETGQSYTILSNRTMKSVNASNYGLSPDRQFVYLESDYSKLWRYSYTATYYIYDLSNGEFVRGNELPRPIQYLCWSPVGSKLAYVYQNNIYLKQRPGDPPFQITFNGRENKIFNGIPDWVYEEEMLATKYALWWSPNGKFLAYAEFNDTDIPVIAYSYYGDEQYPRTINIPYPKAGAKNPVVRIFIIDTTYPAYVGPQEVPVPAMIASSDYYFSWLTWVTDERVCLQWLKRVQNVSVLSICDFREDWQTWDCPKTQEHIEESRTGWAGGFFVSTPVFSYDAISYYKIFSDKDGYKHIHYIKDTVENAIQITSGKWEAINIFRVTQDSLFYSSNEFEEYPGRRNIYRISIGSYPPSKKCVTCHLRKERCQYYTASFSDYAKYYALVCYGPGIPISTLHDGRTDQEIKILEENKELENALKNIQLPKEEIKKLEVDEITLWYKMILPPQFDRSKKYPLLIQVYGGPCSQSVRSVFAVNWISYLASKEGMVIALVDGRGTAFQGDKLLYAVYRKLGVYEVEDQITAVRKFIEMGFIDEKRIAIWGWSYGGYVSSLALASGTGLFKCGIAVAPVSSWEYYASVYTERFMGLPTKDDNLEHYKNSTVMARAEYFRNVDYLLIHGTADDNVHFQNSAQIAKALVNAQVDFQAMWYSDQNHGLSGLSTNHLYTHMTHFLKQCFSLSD

IC50 (human FAP-α): 21 nM
Flux ([1]; + comp.): 0.01 ml/ccm/min
Vs (ratio of specific binding concentration to total parent at equilibrium) ([1]; + comp.): 0.18 ml/ccm
Vt (total distribution volume) ([1]; + comp.): 0.48 ml/ccm
k1 ([1]; + comp.): 0.10 ml/ccm/min
k2 ([1]; + comp.): 0.32 min⁻¹
k3 ([1]; + comp.): 0.04 min⁻¹
k4 ([1]; + comp.): 0.07 min⁻¹
vB (vascular fraction) ([1]; + comp.): 0.04 l/l
Flux ([1]; − comp.): 0.03 ml/ccm/min
Vs (ratio of specific binding concentration to total parent at equilibrium) ([1]; − comp.): 2.31 ml/ccm
Vt (total distribution volume) ([1]; − comp.): 0.87 ml/ccm
k1 ([1]; − comp.): 0.07 ml/ccm/min
k2 ([1]; − comp.): 0.13 min⁻¹
k3 ([1]; − comp.): 0.1 min⁻¹
k4 ([1]; − comp.): 0.02 min⁻¹
vB (vascular fraction) ([1]; − comp.): 0.04 l/l
Blood uptake (Capan-2 tumor xenografts): 0.83 ± 0.127 % ID/g
Brain uptake (Capan-2 tumor xenografts): 0.05 ± 0.010 % ID/g
Heart uptake (Capan-2 tumor xenografts): 0.37 ± 0.031 % ID/g
Intestines uptake (Capan-2 tumor xenografts): 0.30 ± 0.064 % ID/g
Kidneys uptake (Capan-2 tumor xenografts): 1.45 ± 0.106 % ID/g
Liver uptake (Capan-2 tumor xenografts): 0.36 ± 0.015 % ID/g
Lungs uptake (Capan-2 tumor xenografts): 0.72 ± 0.021 % ID/g
Muscle uptake (Capan-2 tumor xenografts): 0.94 ± 0.168 % ID/g
Spleen uptake (Capan-2 tumor xenografts): 0.25 ± 0.015 % ID/g
Tumor uptake (Capan-2 tumor xenografts): 3.82 ± 0.390 % ID/g
Structure (SMILES): N#C[C@@H]1CCCN1C(=O)CNC(=O)c1ccnc2ccc(OCCCN3CCN(C(=O)CN4CCN(CC(=O)O)CCN(CC(=O)O)CCN(CC(=O)O)CC4)CC3)cc12 [FAPI-02]
activity remaining after 24 h of incubation relative to initial radioactivity (HT-1080-FAP cells; 24 h incubation, FAPI-01 compared to binding after 10 min): 34%
internalized proportion of uptake (HT-1080-FAP cells; Lu-177 labeled, after 60 min): 96%
uptake into FAP-α expressing cells (HT-1080-FAP cells; Lu-177 labeled, after 60 min): 20.15±1.74 % ID
